From ChEMBL document CHEMBL1144019 (Bioorg Med Chem, 2008)
In brackets after ≈: the same amount, converted by molar mass.

Experiments:
[1] = tested on: Pseudomonas aeruginosa; assay: Antibacterial activity against Pseudomonas aeruginosa SR24 by standard serial agar dilution method; assay type: functional
[2] = tested on: Pseudomonas aeruginosa; assay: Antibacterial activity against AmpC hyperproducing Pseudomonas aeruginosa SR24-12 by standard serial agar dilution method; assay type: functional
[3] = tested on: Escherichia coli; assay: Antibacterial activity against Toho 2 producing Escherichia coli by standard serial agar dilution method; assay type: functional
[4] = tested on: Staphylococcus aureus; assay: Antibacterial activity against Staphylococcus aureus Smith by standard serial agar dilution method; assay type: functional
[5] = tested on: Haemophilus influenzae; assay: Antibacterial activity against Haemophilus influenzae ATCC 49766 by standard serial agar dilution method; assay type: functional
[6] = tested on: Streptococcus pneumoniae; assay: Antibacterial activity against penicillin-resistant Streptococcus pneumoniae SR-16675 by standard serial agar dilution method; assay type: functional
[7] = tested on: Haemophilus influenzae; assay: Antibacterial activity against beta-lactamase negative ampicillin-resistant Haemophilus influenzae SR-11435 by standard serial agar dilution method; assay type: functional
[8] = tested on: Escherichia coli; assay: Antibacterial activity against Escherichia coli SR-21003 by standard serial agar dilution method; assay type: functional
[9] = Stability in presence of AmpC beta-lactamase; assay type: ADME
[10] = tested on: Moraxella catarrhalis; assay: Antibacterial activity against Moraxella catarrhalis ATCC 43617 by standard serial agar dilution method; assay type: functional
[11] = tested on: Pseudomonas aeruginosa; assay: Antibacterial activity against imipenem-resistant Pseudomonas aeruginosa SR-6554 by standard serial agar dilution method; assay type: functional
[12] = tested on: Pseudomonas aeruginosa; assay: Antibacterial activity against Pseudomonas aeruginosa SR-5393 by standard serial agar dilution method; assay type: functional
[13] = tested on: Enterobacter cloacae; assay: Antibacterial activity against AmpC producing Enterobacter cloacae SR-4321 by standard serial agar dilution method; assay type: functional
[14] = tested on: Enterobacter cloacae; assay: Antibacterial activity against Enterobacter cloacae ATCC 13047 by standard serial agar dilution method; assay type: functional
[15] = tested on: Pseudomonas aeruginosa; assay: Antibacterial activity against Pseudomonas aeruginosa SR-24797 isolate by standard serial agar dilution method; assay type: functional
[16] = tested on: Pseudomonas aeruginosa; assay: Antibacterial activity against Pseudomonas aeruginosa SR-24770 isolate by standard serial agar dilution method; assay type: functional
[17] = tested on: Pseudomonas aeruginosa; assay: Antibacterial activity against Pseudomonas aeruginosa SR-24736 isolate by standard serial agar dilution method; assay type: functional
[18] = tested on: Pseudomonas aeruginosa; assay: Antibacterial activity against Pseudomonas aeruginosa SR-24765 isolate by standard serial agar dilution method; assay type: functional
[19] = tested on: Pseudomonas aeruginosa; assay: Antibacterial activity against Pseudomonas aeruginosa SR-24722 isolate by standard serial agar dilution method; assay type: functional
[20] = tested on: Pseudomonas aeruginosa; assay: Antibacterial activity against Pseudomonas aeruginosa SR-24816 isolate by standard serial agar dilution method; assay type: functional
[21] = tested on: Pseudomonas aeruginosa; assay: Antibacterial activity in CAZ-susceptible Pseudomonas aeruginosa SR24 infected ICR mouse after 7 days; assay type: functional; conditions: 168 h
[22] = tested on: Pseudomonas aeruginosa; assay: Antibacterial activity in CAZ-resistant Pseudomonas aeruginosa SR24-12 infected ICR mouse after 7 days; assay type: functional; conditions: 168 h

SMILES | MIC [1] [µg/mL] | MIC [2] [µg/mL] | MIC [3] [µg/mL] | MIC [4] [µg/mL] | MIC [5] [µg/mL] | MIC [6] [µg/mL] | MIC [7] [µg/mL] | MIC [8] [µg/mL] | Stability [9] [%] | MIC [10] [µg/mL] | MIC [11] [µg/mL] | MIC [12] [µg/mL] | MIC [13] [µg/mL] | MIC [14] [µg/mL] | MIC [15] [µg/mL] | MIC [16] [µg/mL] | MIC [17] [µg/mL] | MIC [18] [µg/mL] | MIC [19] [µg/mL] | MIC [20] [µg/mL] | also measured
CO/N=C(\C(=O)N[C@@H]1C(=O)N2C(C(=O)[O-])=C(C[N+]3(C)CCCC3)CS[C@H]12)c1csc(N)n1 | 0.5 (≈ 1.04 µM) | 32 (≈ 66.6 µM) | 4 (≈ 8.32 µM) | 2 (≈ 4.16 µM) | 0.032 (≈ 0.0666 µM) | 2 (≈ 4.16 µM) | 0.5 (≈ 1.04 µM) | 0.063 (≈ 0.131 µM) | 12.9 | 0.5 (≈ 1.04 µM) | 64 (≈ 133 µM) | 4 (≈ 8.32 µM) |  |  |  |  |  |  |  |  | 
C[C@H](O/N=C(\C(=O)N[C@@H]1C(=O)N2C(C(=O)[O-])=C(C[n+]3cccc4c3ccn4C)CS[C@H]12)c1nc(N)sc1Cl)C(=O)O | 0.5 (≈ 0.806 µM) | 4 (≈ 6.45 µM) | 1 (≈ 1.61 µM) | 1 (≈ 1.61 µM) | 0.016 (≈ 0.0258 µM) | 2 (≈ 3.23 µM) | 0.032 (≈ 0.0516 µM) | 0.125 (≈ 0.202 µM) |  | 0.016 (≈ 0.0258 µM) | 16 (≈ 25.8 µM) | 2 (≈ 3.23 µM) | 1 (≈ 1.61 µM) | 0.25 (≈ 0.403 µM) |  |  |  |  |  |  | 
CNCCNc1cc[n+](CC2=C(C(=O)[O-])N3C(=O)[C@@H](NC(=O)/C(=N\O[C@@H](C)C(=O)O)c4nc(N)sc4Cl)[C@H]3SC2)cc1 | 0.5 (≈ 0.782 µM) | 4 (≈ 6.26 µM) | 4 (≈ 6.26 µM) | 4 (≈ 6.26 µM) | 0.125 (≈ 0.196 µM) | 4 (≈ 6.26 µM) | 0.25 (≈ 0.391 µM) | 0.5 (≈ 0.782 µM) | 80.3 | 0.032 (≈ 0.0501 µM) | 16 (≈ 25 µM) | 2 (≈ 3.13 µM) | 4 (≈ 6.26 µM) | 0.5 (≈ 0.782 µM) |  |  |  |  |  |  | 
CNCCCn1ccc2c1ccc[n+]2CC1=C(C(=O)[O-])N2C(=O)[C@@H](NC(=O)/C(=N\O[C@@H](C)C(=O)O)c3nc(N)sc3Cl)[C@H]2SC1 | 1 (≈ 1.48 µM) | 4 (≈ 5.91 µM) | 2 (≈ 2.95 µM) | 2 (≈ 2.95 µM) | 0.032 (≈ 0.0473 µM) | 4 (≈ 5.91 µM) | 0.063 (≈ 0.093 µM) | 0.5 (≈ 0.738 µM) | 78.4 | 0.016 (≈ 0.0236 µM) | 8 (≈ 11.8 µM) | 2 (≈ 2.95 µM) | 2 (≈ 2.95 µM) | 0.5 (≈ 0.738 µM) | 8 (≈ 11.8 µM) | 8 (≈ 11.8 µM) | 8 (≈ 11.8 µM) | 8 (≈ 11.8 µM) | 8 (≈ 11.8 µM) | 4 (≈ 5.91 µM) | 
CNCCn1ccc2c1ccc[n+]2CC1=C(C(=O)[O-])N2C(=O)[C@@H](NC(=O)/C(=N\O[C@@H](C)C(=O)O)c3nc(N)sc3Cl)[C@H]2SC1 | 1 (≈ 1.51 µM) | 4 (≈ 6.03 µM) | 2 (≈ 3.02 µM) | 2 (≈ 3.02 µM) | 0.032 (≈ 0.0483 µM) | 4 (≈ 6.03 µM) | 0.125 (≈ 0.188 µM) | 0.5 (≈ 0.754 µM) |  | 0.032 (≈ 0.0483 µM) | 8 (≈ 12.1 µM) | 2 (≈ 3.02 µM) | 2 (≈ 3.02 µM) | 0.5 (≈ 0.754 µM) |  |  |  |  |  |  | 
CNCCCn1c(N)nc2c1ccc[n+]2CC1=C(C(=O)[O-])N2C(=O)[C@@H](NC(=O)/C(=N\O[C@@H](C)C(=O)O)c3nc(N)sc3Cl)[C@H]2SC1 | 0.5 (≈ 0.721 µM) | 4 (≈ 5.77 µM) | 2 (≈ 2.89 µM) | 2 (≈ 2.89 µM) | 0.032 (≈ 0.0462 µM) | 2 (≈ 2.89 µM) | 0.063 (≈ 0.0909 µM) | 0.25 (≈ 0.361 µM) | 90.2 | 0.016 (≈ 0.0231 µM) | 8 (≈ 11.5 µM) | 2 (≈ 2.89 µM) | 2 (≈ 2.89 µM) | 0.5 (≈ 0.721 µM) | 4 (≈ 5.77 µM) | 4 (≈ 5.77 µM) | 2 (≈ 2.89 µM) | 4 (≈ 5.77 µM) | 4 (≈ 5.77 µM) | 2 (≈ 2.89 µM) | ED50 [21]: 1.33 mg/kg; ED50 [22]: 4.69 mg/kg
CC(C)(O/N=C(\C(=O)N[C@@H]1C(=O)N2C(C(=O)[O-])=C(C[n+]3ccccc3)CS[C@H]12)c1csc(N)n1)C(=O)O [CEFTAZIDIME] | 0.5 (≈ 0.915 µM) | 64 (≈ 117 µM) | 1 (≈ 1.83 µM) | 8 (≈ 14.6 µM) | 0.063 (≈ 0.115 µM) | 8 (≈ 14.6 µM) | 0.125 (≈ 0.229 µM) | 0.25 (≈ 0.457 µM) | 18 | 0.063 (≈ 0.115 µM) | 32 (≈ 58.5 µM) | 2 (≈ 3.66 µM) | 64 (≈ 117 µM) | 8 (≈ 14.6 µM) | 64 (≈ 117 µM) | 64 (≈ 117 µM) | 128 (≈ 234 µM) | 128 (≈ 234 µM) | 64 (≈ 117 µM) | 64 (≈ 117 µM) | ED50 [21]: 2.83 mg/kg; ED50 [22]: > 128 mg/kg
